Reference: patent US8139339B2, “Modulation of neuromuscular functions with ultrashort electrical pulses” (Old Dominion University Research Foundation, priority 2007, dated 2012)
Where two headings read alike, the source gives them in different places.

Tests used:
[1] = test system: liver cells; details: oxidative stress-activated NSCCs; cited from earlier work
[2] = test system: hippocampal CA1 neurons; details: cited from earlier work
[3] = test system: nsPEF-opened conductance pores; experiment: whole-cell patch clamp of membrane conductance/resistance after nsPEF exposure; assay type: cell-based; details: for condition of nsPEF-exposed cells: added prior to exposure to 1 or 5 pulses
Text: Patch clamp recording: Cells on a cover slip were transferred into a glass-bottomed chamber (Warner Instruments, Hamden, Conn.) mounted on a motorized stage (Prior Scientific Inc., Rockland, Mass.) of an IX71 FluoView™ 300 confocal laser scanning microscope. Recording pipettes were pulled from 1B150F-4 glass (World Precision Instruments, Sarasota, Fla.) to a tip resistance of 1.5-3 MOhm and moved into a position with a model 6500 hydraulic micromanipulator (Siskiyou, Grants Pass, Oreg.). Electrophysiology data were acquired using a Multiclamp 700B amplifier, Digidata 1322A A-D converter, and pCLAMP 10 software (Molecular Devices, Foster City, Calif.). The analog signal was low-pass filtered at 2 or 5 kHz, and digitized at “oversampling” rates of 10 to 50 kHz. The series resistance was not compensated. Typical values of the seal and access resistance were 4-15 GOhm and 4-10 MOhm, respectively, except for a solution pair HEPES/Cl. […] The data from these experiments were analyzed differently (see below).
As shown in the inventors preliminary experiments, nsPEF exposure could be damaging to the gigaohmic seal between the cell membrane and the glass pipette, thereby effectively destroying the patch-clamp recording configuration. […] The exposure of intact (rather than already “patched”) cells effectively removed any concerns about possible artifacts caused by the presence of the glass pipette during the exposure.
Once the whole-cell configuration was formed, the membrane resistance and capacitance (Rm and Cm) were measured using the Membrane Test utility of pClamp10 software. The holding level was set at −70 or −60 mV; 10- or 20-mV test pulses were applied at 30- to 100-Hz rates and averaged on-line (n=6-12). The membrane potential (MP) was measured by switching briefly from voltage to current clamp mode at I=0.
After Cm compensation, the holding membrane potential was set to −70 mV. In most experiments, the I-V relationship was obtained by applying voltage ramps, typically from −100 to +100 mV within 20-40 ms, and preceded by a brief step to −100 mV. Passive Gm was determined as the slope of the I-V curve by a best fit linear approximation through a region that contained no visible voltage-gated currents, usually from −80 to −50 mV. As one would expect, these Gm values correlated very closely with the inverse of Rm values measured using the Membrane Test. Erev was determined in a usual manner, as an intercept of the best fit line with abscissa.
Exposure to nsPEF and local E-field modeling: A Blumlein line pulse generator (Kolb, J. F., S. Kono, and K. H. Schoenbach. 2006. Nanosecond pulsed electric field generators for the study of subcellular effects. Bioelectromagnetics 27:172-187) produced nearly rectangular 60-ns pulses that were delivered to the selected cell by a pair of tungsten electrodes (0.125 mm electrode diameter, 0.31 mm gap between the electrodes). With a help of a micromanipulator, the electrodes were positioned 5-10 μm above the surface of the cover slip on the sides of the selected cell; the cell was in the middle of the gap between the electrodes, at a distance of about 50-100 μm from their tips.
To check if activation of endogenous NSCCs was responsible (at least in part) for observed nsPEF effects, an attempt was made by the inventors to modify these effects with ruthenium red and with lanthanide ions. It should be noted, however, that these substances are not truly specific and can affects various other channels and intracellular processes.
Ruthenium red was added to the bath solution of the K/Na pair (see Table 1) at 10, 50, or 200 μM prior to exposure to 1 or 5 pulses, and the whole-cell currents were recorded after the exposure in the usual manner.

## [Cl][Gd]([Cl])[Cl] [Gd^3+, GdCl3]
[1]
  number of necrotic cells: sharply decreased
[2]; 100 μM
  swelling and other deleterious effects of oxygen-glucose deprivation: reduced swelling
[3]; 0.2 mM, initial trials
  protective effect against nsPEF permeabilization: no protection

## N.N.N.N.N.N.N.N.N.N.N.N.N.N.[Cl-].[Cl-].[Cl-].[Cl-].[Cl-].[Cl-].[O-2].[O-2].[Ru+3].[Ru+3].[Ru+4] [ruthenium red]
[2]; 1 μM
  swelling and other deleterious effects of oxygen-glucose deprivation: reduced swelling
[3]; 10 μM in bath of K/Na pair, added prior to exposure
  effect on membrane conductance increase by nsPEF: neither enhanced nor inhibited
[3]; 50 μM in bath of K/Na pair
  effect on control (sham-exposed) cells: no apparent effect
  condition of nsPEF-exposed cells: worsened the condition of nsPEF-exposed cells
[3]; 200 μM in bath of K/Na pair
  effect on control (sham-exposed) cells: no apparent effect
  condition of nsPEF-exposed cells: worsened the condition of nsPEF-exposed cells

## [Cl][La]([Cl])[Cl] [La^3+, LaCl3]
[2]; 100 μM
  swelling and other deleterious effects of oxygen-glucose deprivation: reduced swelling
